Measurements from patent publication US12552812B2, “Pyridone multiple-membered ring derivatives and use thereof” (priority 2021, dated 2026).

Assays:
[1] = tested on: Baloxavir-resistant A/PR/8/34 (H1N1) I38T influenza virus strain; assay type: cell-based
[2] = tested on: Baloxavir-resistant A/PR/8/34 (H1N1) I38T virus strain; set-up: species or system BALB/c mice; conditions: mouse, in vivo

SMILES | EC50 [1] | Survival rate (%) [2] | body weight of the mice [2]
O=C1c2c(O)c(=O)ccn2N([C@H]2c3ccc(F)c(F)c3C[Se]c3cccnc32)[C@@H]2COCCN12 [Compound 3] | 57.5 nM | – | –
COC(=O)OCOc1c2n(ccc1=O)N([C@H]1c3ccc(F)c(F)c3C[Se]c3cccnc31)[C@@H]1COCCN1C2=O [Compound 4] | – | 100% | hardly decreased
